The record followed here is patent publication US5204311A, “Ethanediimidic acid bis[(arylalkylidene)hydrazide] color-formers” (Minnesota Mining and Manufacturing Company, priority 1991, dated 1993).

Series [1] in a line: Color (Hunter coordinates) of Ni complex, swabbed on Ni-coated receptor (CF) sheet. The series is classed as physicochemical. The note with it: for Chroma: C=(a^2 +b^2)^1/2; for Chroma / Image Color / Hunter Coordinates L / Hunter Coordinates a / Hunter Coordinates b: Ni(II) complex; for Chroma / Image Color: swab concn. 1% (Table 2); for Hunter Coordinates L / Hunter Coordinates a / Hunter Coordinates b: swab concn. 1%, 45°/0° reflectance, illuminant C (Table 2); for color of nickel / transition metal coordination compound (in words) / Chroma (in words): description. Also on record: key to Hunter coordinate a / Hunter Coordinates a: Hunter a: +a red, -a green; key to Hunter coordinate b / Hunter Coordinates b: Hunter b: +b yellow, -b blue. As for the experimental part: In general, the colors of the complexes, as listed in Table 2 and Experiments 4, 6, and 7 below, were determined by preparing a 1% solution of the color-former or mixture of color-formers in an appropriate solvent. Unless otherwise indicated, the solvent was composed of a mixture of tributyl phosphate (26.5%), diethyl phthalate (17.6%), and cyclohexane (55.9%). The images were formed by applying two stripes of the solution to a substrate coated with a Ni^2+ coated receptor sheet using a cotton tipped applicator swab. Rapid and complete development of the image was achieved by passing the sheet through a hot shoe adjusted to 102° C., making a revolution every 10 seconds. The visually observed colors were measured and recorded.
One method of color measurement is to determine the color's position in color space. One color space system is the Hunter System; see F. W. Billmeyer, Jr., and M. Saltzman, Principles of Color Technology; John Wiley & Sons; New York, N.Y.; Ch. 2 & 3, 1981. In this system three mutually perpendicular axes (L, a, and b) are needed to define a color. "L" (+z axis) represents the lightness or darkness of the image; "a" (x axis) represents the amount of red or green (+a is red, -a is green); and "b" (y axis) represents the amount of yellow or blue (+b is yellow, -b is blue). By measuring a material's L, a, and b values, the color of one sample can be compared with that of other samples. Another value used in the Hunter System is Chroma (C). Chroma is defined by the equation [C=(a^2 +b^2)^1/2 ] and represents the distance of the image coordinates from the origin. The greater the Chroma, the more intense the image. Chroma is used to compare images cf the same hue. Because the color of a sample is also dependent upon the color temperature of the illuminating source, the angle at which the sample is illuminated, the angle at which the illumination is reflected, and the angle of the retina illuminated, these all need to be specified. Many instruments have been developed to record these values. One such instrument is the HunterLab LabScan II. This instrument is capable of automatically determining the L, a, and b values for a given sample, and was used for the following examples.
The L, a, and b color coordinates of the more uniform stripe were measured for 45°/0° reflectance on a HunterLab LabScan II, secondary observer, using illuminant C. The observed (image) color and the Hunter coordinates for Ni^2+ complexes of the yellow color-formers of this invention are given in Table 2.
A 1% solution of the condensation product in the encapsulation fill mix was swabbed onto a carbonless paper CF sheet (sold by the 3M Co. St. Paul, Minn.) with a cotton swab. The reflectance spectra had Hunter coordinates of: […]

Series [2] is described as follows: Solubility in capsule fill solvents. Format: physicochemical. On the procedure:
The encapsulation process requires the color-forming ligand be dissolved in a solvent or mixed solvents, because of the nature of the procedure. Formation of a microcapsule shell as by condensation of urea or melamine with an aldehyde such as formaldehyde or mixtures of aldehydes to form the capsule shell is carried out in an acidic aqueous medium and the color-former solution must be insoluble and unreactive to these reagents for the encapsulation to proceed. Solvents commonly used include tributyl phosphate, diethyl phthalate, and cyclohexane. […] As mentioned above, solubility of yellow color-formers exemplified by structure I in nonaqueous solvents such as those used in the encapsulation process may be increased by substituting alkyl, aryl, aralkyl, alkenyl, or such groups for the hydrogens on the various positions available in the structure I above.
This color observed on the CF sheet was yellow. […] Solubility in a solvent blend of tributyl phosphate, diethyl phthalate and cyclohexane (capsule solvents for preparing carbonless copy-paper) was >9% by weight. Thus the ligand is eminently suitable for encapsulation. The ligand is not volatile at 71 ° C. overnight.
Solubility in a solvent blend of tributyl phosphate, diethyl phthalate and cyclohexane (capsule solvents for preparing carbonless copy-paper) was 3% by weight. Thus the ligand is eminently suitable for encapsulation. The ligand is not volatile at 71 ° C. overnight.
*THE SOLUBILITY WAS DEEMED PREFERABLE IF IT WAS GREATER THAN 2% IN THE
FILL MIX AT ROOM TEMPERATURE FOR 3 DAYS. THE FILL MIX COMPRISED
TRIBUTYLPHOSPHATE (26.5%); DIETHYLPHTHALATE (17.6%); AND CYCLOHEXANE

Entries after “also recorded” stand apart in the source; their conditions may differ. Where only a bound is given, the exact number is not on record here.

Take `NC(=NN=Cc1cc(Br)ccc1O)C(N)=NN=Cc1cc(Br)ccc1O` [Compound 3, Ethanediimidic acid bis[(2-hydroxy-5-bromophenylmethylene)hydrazide]]: in series [1], the Chroma was 41.1, the “Image Color” value is reported as “Yellow”, the “Hunter Coordinates L” value is 81.9 and the “Hunter Coordinates a” value was -7.5. The “Hunter Coordinates b” value in series [1] was found to be 40.5. In series [2] (4320 min), the “Dye Solubility” value is recorded as less than 2.0%.
For the molecule `CC(=NN=C(N)C(N)=NN=C(C)c1ccccc1O)c1ccccc1O` [Compound 6, Ethanediimidic acid bis[(2-hydroxyphenyl-methyl-methylene)hydrazide]], in series [1], the Chroma was determined as 20.1, the “Image Color” value is reported as “Yellow”, the “Hunter Coordinates L” value is on record as 48.3 and the “Hunter Coordinates a” value is on record as -5.3. Besides, in series [1], the “Hunter Coordinates b” value was 19.4 and the “color of nickel / transition metal coordination compound (in words)” value is recorded as “yellow”. For the same molecule, the “Dye Solubility” value in series [2] (4320 min) is on record as less than 2.0%.
For the molecule `NC(=NN=Cc1c(O)ccc2ccccc12)C(N)=NN=Cc1c(O)ccc2ccccc12` [Compound 17, Ethanediimidic acid bis[(2-hydroxy-1-naphthylmethylene)hydrazide]], in series [1], the Chroma was found to be 28.5, the “Image Color” value is recorded as “Yellow”, the “Hunter Coordinates L” value worked out at 86.6 and the “Hunter Coordinates a” value is recorded as -6.5. Further, the “Hunter Coordinates b” value in series [1] is listed as 27.8. For the same molecule, the “Dye Solubility” value in series [2] (4320 min) is less than 2.0%.
Turning to `CCCCCCC=NN=C(N)C(N)=NN=CCCCCCC` [Compound 15], in series [1], the Chroma was 11.6, the “Hunter Coordinates L” value stood at 89.9, the “Hunter Coordinates a” value was -4.2 and the “Hunter Coordinates b” value was 10.8. Besides, in series [1], the “color of nickel / transition metal coordination compound (in words)” value was “very weakly yellow; also recorded: weak yellow”. For the same molecule, in series [1] (nickel complex), the “measured reflectance density (in words)” value was “low”; the “Chroma (in words)” value was “low and low Chroma value”. Further, the “Dye Solubility” value in series [2] (4320 min) was greater than 2.0%.
For `CCOc1cccc(C=NN=C(N)C(N)=NN=Cc2cccc(OCC)c2O)c1O` [Compound 11, Ethanediimidic acid bis[(2-hydroxy-3-ethoxyphenylmethylene)hydrazide]], in series [1], the Chroma came out at 39.3, the “Image Color” value is reported as “Yellow”, the “Hunter Coordinates L” value came to 88.4 and the “Hunter Coordinates a” value is recorded as -15.2. In series [1], the “Hunter Coordinates b” value is reported as 36.2. In addition, the “Dye Solubility” value in series [2] (4320 min) was less than 2.0%.
For the molecule `NC(=NN=Cc1ccccn1)C(N)=NN=Cc1ccccn1` [Compound 14, Ethanediimidic acid bis[(2-pyridylmethylene)hydrazide]], in series [1], the Chroma is on record as 35.0, the “Image Color” value is on record as “Yellow”, the “Hunter Coordinates L” value is on record as 86.5 and the “Hunter Coordinates a” value is -11.0. The “Hunter Coordinates b” value in series [1] was 33.2. In addition, the “Chroma (in words)” value in series [1] (nickel complex) is “intermediate between that of aliphatic and the preferred o-substituted ligands”. In addition, in series [2] (4320 min), the “Dye Solubility” value was less than 2.0%.
For `CC(C)(C)c1cc(C=NN=C(N)C(N)=NN=Cc2cc(C(C)(C)C)c(O)c(C(C)(C)C)c2)cc(C(C)(C)C)c1O` [Compound 2, Ethanediimidic acid bis[(4-hydroxy-3,5-di-t-butylphenylmethylene)hydrazide]], in series [1], the Chroma came to 19.2, the “Hunter Coordinates L” value is 90.0, the “Hunter Coordinates a” value is given as -8.0 and the “Hunter Coordinates b” value is recorded as 17.6. Further, in series [1], the “color of nickel / transition metal coordination compound (in words)” value is listed as “much weaker”. The “Chroma (in words)” value in series [1] (nickel complex) is given as “lower Chroma”. Also, the “Dye Solubility” value in series [2] (4320 min) was greater than 2.0%.
For the molecule `CCOC(=O)CC(C)=NN=C(N)C(N)=NN=C(C)CC(=O)OCC` [Compound 7], in series [1], the Chroma worked out at 15.4, the “Hunter Coordinates L” value stood at 89.4, the “Hunter Coordinates a” value was -5.8 and the “Hunter Coordinates b” value is 14.3. The “Dye Solubility” value in series [2] (4320 min) is greater than 2.0%.
Regarding `COc1cccc(C=NN=C(N)C(N)=NN=Cc2cccc(OC)c2O)c1O` [Compound 10, Ethanediimidic acid bis[(2-hydroxy-3-methoxyphenylmethylene)hydrazide]], in series [1], the Chroma is recorded as 36.2, the “Image Color” value is reported as “Yellow”, the “Hunter Coordinates L” value came out at 86.4 and the “Hunter Coordinates a” value was -11.1. Moreover, in series [1], the “Hunter Coordinates b” value worked out at 34.5. The “Dye Solubility” value in series [2] (4320 min) is given as less than 2.0%.
In the case of `NC(=NN=C(c1ccccc1)c1ccc(O)cc1O)C(N)=NN=C(c1ccccc1)c1ccc(O)cc1O` [Compound 8, Ethanediimidic acid bis[(2,4-dihydroxyphenyl-phenyl-methylene)hydrazide]], in series [1], the Chroma was 18.0, the “Hunter Coordinates L” value is listed as 88.0, the “Hunter Coordinates a” value is on record as -6.0 and the “Hunter Coordinates b” value turned out to be 17.0. Besides, the “Dye Solubility” value in series [2] (4320 min) was less than 2.0%.
As to `NC(=NN=Cc1cccs1)C(N)=NN=Cc1cccs1` [Compound 13, Ethanediimidic acid bis[(2-thienylmethylene)hydrazide]], in series [1], the “Image Color” value is given as “Brown”, the “Hunter Coordinates L” value worked out at 72.6, the “Hunter Coordinates a” value is recorded as 11.2 and the “Hunter Coordinates b” value was 13.9. For the same molecule, the “Chroma (in words)” value in series [1] (nickel complex) is “intermediate between that of aliphatic and the preferred o-substituted ligands”. The “Dye Solubility” value in series [2] (4320 min) was less than 2.0%.
As to `NC(=NN=Cc1cc([N+](=O)[O-])ccc1O)C(N)=NN=Cc1cc([N+](=O)[O-])ccc1O` [Compound 4, Ethanediimidic acid bis[(2-hydroxy-5-nitrophenylmethylene)hydrazide]], in series [1], the Chroma is reported as 40.1, the “Image Color” value was “Yellow”, the “Hunter Coordinates L” value is given as 83.9 and the “Hunter Coordinates a” value was -9.7. In series [1], the “Hunter Coordinates b” value worked out at 38.9. For the same molecule, the “Dye Solubility” value in series [2] (fill mix tributylphosphate (26.5%), diethylphthalate (17.6%), cyclohexane (55.9%), room temperature, 3 days (Table 2)) is given as less than 2.0%.
Turning to `CCN(CC)c1ccc(C=NN=C(N)C(N)=NN=Cc2ccc(N(CC)CC)cc2O)c(O)c1` [Compound 5, Ethanediimidic acid bis[(2-hydroxy-4-diethylaminophenylmethylene)hydrazide]], in series [1], the Chroma is 41.4, the “Image Color” value was “Yellow”, the “Hunter Coordinates L” value is listed as 80.9 and the “Hunter Coordinates a” value is -5.2. The “Hunter Coordinates b” value in series [1] is given as 41.0. Also, the “Dye Solubility” value in series [2] (4320 min) is listed as less than 2.0%.
With `NC(=NN=Cc1ccco1)C(N)=NN=Cc1ccco1` [Compound 12, Ethanediimidic acid bis[(furylmethylene)hydrazide]], in series [1], the Chroma stood at 25.8, the “Image Color” value is on record as “Yellow”, the “Hunter Coordinates L” value turned out to be 89.4 and the “Hunter Coordinates a” value is -10.6. Also, the “Hunter Coordinates b” value in series [1] came out at 23.5. Also, the “Chroma (in words)” value in series [1] (nickel complex) is “intermediate between that of aliphatic and the preferred o-substituted ligands”. Besides, the “Dye Solubility” value in series [2] (4320 min) is listed as less than 2.0%.
